From patent US8895571B2, “Isoindolinone and pyrrolopyridinone derivatives as Akt inhibitors” (Incyte Corporation, priority 2011, dated 2014) come the findings set out here.

Common to all, as to assay type: biochemical
For one experiment, the target named is T1, Full length Akt1 (Homo sapiens, UniProt P31749).
T1 construct: Full length Akt1 (cat #P2999); purchased PerkinElmer P2999
Put plainly: In vitro Akt kinase enzymatic assay (HTRF), Akt1. The conditions noted are these: 0.4 nM Akt1, substrate solution with 5 mM ATP, 25° C. 1 hr. How it is done:
(§1) Compounds herein were tested for inhibitory activity of Akt targets according to the following in vitro assay. Full length Akt1 (cat #P2999), Akt2 (cat #PV3184), Akt3 (cat #PV3185), peptide substrate, Ulight-Crosstide (cat #TRF0106-M), Ultra-Europium anti-phospho-Crosstide (cat #TRF-0202-M), and 10×LANCE detection buffer (cat #CR97-100) were purchased from PerkinElmer. In general, assay buffer conditions were chosen based on obtaining optimal enzymatic and linear activities. The assay buffer contains 50 mM HEPES, 10 mM MgCl2, 5 mM DTT, 0.005% Tween20 at pH 7.8. Compound stock (0.001 mM) was prepared in DMSO. The compound plate was prepared by 3-fold and 11-point serial dilutions. 0.5 μL of the compound in DMSO was transferred from the compound plate to the assay plate. Enzyme solution (0.4 nM of Akt1, 0.6 nM of Akt2 or 0.6 nM of Akt3) was prepared in the assay buffer. Note that the enzyme concentration given is based on the given stock concentration reported by the vendor. 0.1 μM substrate solution was prepared in the assay buffer with addition of 5 mM ATP. 10 μL of the enzyme solution was added to the assay plate and then 10 μL of substrate solution was added to the assay plate. The plate was protected from light and the reaction was incubated at 25° C. for 1 hr. The reaction was stopped by adding 10 μL of a solution containing 30 mM EDTA, and 3 nM Ultra Europium anti-phospho Crosstide in 1× detection buffer. The plate was incubated for 15-30 min at room temperature and HTRF (homogenous time resolved fluorescence) was measured on a plate reader. Percentage of inhibition was calculated for each concentration and IC50 value was generated from curve fitting. See Table 8 for data related to compounds of the examples.
(Time-resolved FRET reads energy transfer from a long-lived donor to a nearby acceptor.)

The next experiment addresses T2, Full length Akt2 (Homo sapiens, UniProt P31751).
T2 construct: Full length Akt1 (cat #P2999), Akt2 (cat #PV3184); purchased PerkinElmer PV3184
Description: In vitro Akt kinase enzymatic assay (HTRF), Akt2. The conditions noted are these: 0.6 nM Akt2, substrate solution with 5 mM ATP, 25° C. 1 hr. How it is done: as §1

For the next experiment, the target named is T3, Full length Akt3 (Homo sapiens, UniProt Q9Y243).
T3 construct: Full length Akt1 (cat #P2999), Akt2 (cat #PV3184), Akt3 (cat #PV3185); purchased PerkinElmer PV3185
T3 sequence (Q9Y243 whole entry): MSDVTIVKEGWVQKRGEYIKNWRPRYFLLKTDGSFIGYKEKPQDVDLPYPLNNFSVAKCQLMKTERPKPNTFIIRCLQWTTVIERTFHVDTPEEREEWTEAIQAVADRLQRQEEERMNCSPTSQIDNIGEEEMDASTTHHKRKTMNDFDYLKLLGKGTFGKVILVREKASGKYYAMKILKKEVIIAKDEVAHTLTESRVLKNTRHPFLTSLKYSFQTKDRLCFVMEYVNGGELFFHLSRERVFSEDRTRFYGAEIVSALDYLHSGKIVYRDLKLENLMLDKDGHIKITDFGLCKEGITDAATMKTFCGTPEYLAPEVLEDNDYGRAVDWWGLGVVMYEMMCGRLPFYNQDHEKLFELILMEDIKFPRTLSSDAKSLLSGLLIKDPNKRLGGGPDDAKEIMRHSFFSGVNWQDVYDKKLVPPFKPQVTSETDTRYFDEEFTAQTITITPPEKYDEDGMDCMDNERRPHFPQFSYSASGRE
Description: In vitro Akt kinase enzymatic assay (HTRF), Akt3. The settings on record: 0.6 nM Akt3, substrate solution with 5 mM ATP, 25° C. 1 hr. How it is done: as §1

A further experiment has as its target T4, Full length PKA (Homo sapiens, UniProt P17612).
T4 construct: Full length PKA (cat #P2912); purchased Invitrogen P2912
Put plainly: PKA in vitro enzymatic assay (HTRF). The settings on record: 0.035 nM enzyme solution, substrate solution with 5 mM ATP, 25° C. 1 hr. How it is done: Full length PKA (cat #P2912), peptide substrate, fluorescein CREBtide peptide (cat #PV3508), Tb-Crebtide p-S133 Ab (cat #PV3566), and Lanthascreen TR-FRET Dilution Buffer stored (part # PV3574) were purchased from Invitrogen. In general, assay buffer conditions were chosen based on obtaining optimal and linear enzymatic activities. The assay buffer contains 50 mM HEPES, 10 mM MgCl2, 5 mM DTT, 0.005% Tween20 at pH 7.8. Compound stock (0.001 mM) was prepared in DMSO. The compound plate was prepared by 3-fold and 11-point serial dilutions. 0.5 μL of the compound in DMSO was transferred from the compound plate to the assay plate. 0.035 nM enzyme solution was prepared in the assay buffer. Note that the enzyme concentration given is based on the given stock concentration reported by the vendor. 0.1 μM substrate solution was prepared in the assay buffer with addition of 5 mM ATP. 10 μL of the enzyme solution was added to the assay plate and then 10 μL of substrate solution was added to the assay plate. The plate was protected from light and the reaction was incubated at 25° C. for 1 hr. The reaction was stopped by adding 10 μL of a solution containing 30 mM EDTA, and 1.5 nM Tb-Crebtide p-S133 Ab in 1× detection buffer. The plate was incubated for 15-30 min at room temperature and HTRF (homogenous time resolved fluorescence) was measured on a plate reader. Percentage of inhibition was calculated for each concentration and IC50 value was generated from curve fitting. See Table 8 for data related to compounds of the examples.

Where only a bound is given, the exact number is not on record here.

T2 sequence (P31751 whole entry): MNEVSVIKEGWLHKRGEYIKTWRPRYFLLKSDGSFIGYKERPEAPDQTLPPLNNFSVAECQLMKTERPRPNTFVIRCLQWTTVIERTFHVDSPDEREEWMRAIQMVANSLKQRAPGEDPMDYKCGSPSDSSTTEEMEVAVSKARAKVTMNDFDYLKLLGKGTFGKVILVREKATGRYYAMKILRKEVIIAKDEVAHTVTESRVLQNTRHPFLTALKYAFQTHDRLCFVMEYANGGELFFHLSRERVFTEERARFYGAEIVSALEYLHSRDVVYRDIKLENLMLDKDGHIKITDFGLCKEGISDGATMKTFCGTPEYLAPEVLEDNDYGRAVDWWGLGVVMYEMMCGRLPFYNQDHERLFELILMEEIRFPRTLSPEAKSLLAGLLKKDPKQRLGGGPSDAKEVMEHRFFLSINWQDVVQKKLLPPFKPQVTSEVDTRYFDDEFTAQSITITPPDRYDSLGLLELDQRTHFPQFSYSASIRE
T1 sequence (P31749 whole entry): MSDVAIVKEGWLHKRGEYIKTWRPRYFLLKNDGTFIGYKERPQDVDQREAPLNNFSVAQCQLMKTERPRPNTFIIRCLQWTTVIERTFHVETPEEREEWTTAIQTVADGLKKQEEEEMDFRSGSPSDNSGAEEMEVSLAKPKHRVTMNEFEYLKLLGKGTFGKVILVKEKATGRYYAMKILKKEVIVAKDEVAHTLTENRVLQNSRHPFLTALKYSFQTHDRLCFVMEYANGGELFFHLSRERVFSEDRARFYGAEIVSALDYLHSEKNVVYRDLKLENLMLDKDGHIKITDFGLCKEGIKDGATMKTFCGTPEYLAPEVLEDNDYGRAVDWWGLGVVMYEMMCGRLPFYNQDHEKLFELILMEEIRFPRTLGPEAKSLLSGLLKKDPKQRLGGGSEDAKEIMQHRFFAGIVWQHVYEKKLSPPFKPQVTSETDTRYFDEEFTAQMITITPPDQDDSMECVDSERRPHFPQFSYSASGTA

For `CCN(CC)C[C@H](Cc1cccc(F)c1)N1Cc2cc(-c3c(Cl)cnn3C)ccc2C1=O` [Example 39, 5-(4-chloro-1-methyl-1H-pyrazol-5-yl)-2-[(1S)-2-(diethylamino)-1-(3-fluorobenzyl)ethyl]isoindolin-1-one], the IC50 (as a rule, the midpoint of a concentration-inhibition curve) is less than 0.5 µM on Full length Akt1, more than 5 µM at Full length Akt2, 0.5 to 5 µM on Full length Akt3 and more than 5 µM against Full length PKA.
Turning to `Cn1ncc(Cl)c1-c1ccc2c(n1)CN([C@H](CN)Cc1ccccc1)C2=O` [Example 112, 6-[(1S)-2-amino-1-benzylethyl]-2-(4-chloro-1-methyl-1H-pyrazol-5-yl)-6,7-dihydro-5H-pyrrolo[3,4-b]pyridin-5-one], the IC50 against Full length Akt1 was 0.5 to 5 µM; against Full length Akt2, 0.5 to 5 µM; against Full length Akt3, 0.5 to 5 µM; against Full length PKA, more than 5 µM.
Turning to `CN(C)C[C@H](Cc1cccc(F)c1)N1Cc2cc(-c3c(Cl)cnn3C)ccc2C1=O` [Example 38, 5-(4-chloro-1-methyl-1H-pyrazol-5-yl)-2-[(1S)-2-(dimethylamino)-1-(3-fluorobenzyl)ethyl]isoindolin-1-one], the IC50 against Full length Akt1 is 0.5 to 5 µM; on Full length Akt2 it was more than 5 µM; against Full length Akt3, more than 5 µM; against Full length PKA it was more than 5 µM.
Take `COc1cc(C[C@@H](CN)N2Cc3cc(-c4ccnn4C)ccc3C2=O)ccn1` [Example 77, 2-{(1S)-2-amino-1-[(2-methoxypyridin-4-yl)methyl]ethyl}-5-(1-methyl-1H-pyrazol-5-yl)isoindolin-1-one]: the half-maximal inhibitory concentration (IC50) against Full length Akt1 was 0.5 to 5 µM; against Full length Akt2, more than 5 µM; against Full length Akt3 it was more than 5 µM; against Full length PKA it was more than 5 µM.
For `Cn1ncc(-c2ccccc2)c1-c1ccc2c(c1)CN([C@H](CN)Cc1cccc(F)c1)C2=O` [Example 14, 2-[(1S)-2-amino-1-(3-fluorobenzyl)ethyl]-5-(4-phenyl-1-methyl-1H-pyrazol-5-yl)isoindolin-1-one], the IC50 against Full length Akt1 was 0.5 to 5 µM; against Full length Akt2, 0.5 to 5 µM; on Full length Akt3, less than 0.5 µM; against Full length PKA it was more than 5 µM.
`Cn1ncc(Cl)c1-c1ccc2c(c1)CN([C@H](CNC1CCOCC1)Cc1cccc(F)c1)C2=O` [Example 36, 5-(4-chloro-1-methyl-1H-pyrazol-5-yl)-2-[(1S)-1-(3-fluorobenzyl)-2-(tetrahydro-2H-pyran-4-ylamino)ethyl]isoindolin-1-one]: the IC50 against Full length Akt1 is 0.5 to 5 µM; at Full length Akt2, 0.5 to 5 µM; on Full length Akt3, more than 5 µM; on Full length PKA, more than 5 µM.
For the compound `COc1cc(C[C@@H](CN)N2Cc3cc(-c4c(Cl)cnn4C)ccc3C2=O)ccn1` [Example 64, 2-{(1S)-2-amino-1-[(2-methoxypyridin-4-yl)methyl]ethyl}-5-(4-chloro-1-methyl-1H-pyrazol-5-yl)isoindolin-1-one], the IC50 against Full length Akt1 was 0.5 to 5 µM; against Full length Akt2, more than 5 µM; at Full length Akt3, more than 5 µM; against Full length PKA, more than 5 µM.
For `Cn1nccc1-c1ccc2c(c1)CN(C(CN)c1ccc(F)cc1)C2=O` (centres unmarked) [Example 118, 2-[2-amino-1-(4-fluorophenyl)ethyl]-5-(1-methyl-1H-pyrazol-5-yl)isoindolin-1-one], the half-maximal inhibitory concentration (IC50) is less than 0.5 µM against Full length Akt1, 0.5 to 5 µM against Full length Akt2, more than 5 µM at Full length Akt3 and more than 5 µM on Full length PKA.
With `Cn1nccc1-c1ccc2c(n1)CN([C@H](CN)Cc1cccc(F)c1)C2=O` [Example 110, 6-[(1S)-2-amino-1-(3-fluorobenzyl)ethyl]-2-(1-methyl-1H-pyrazol-5-yl)-6,7-dihydro-5H-pyrrolo[3,4-b]pyridin-5-one], the IC50 is less than 0.5 µM at Full length Akt1, 0.5 to 5 µM at Full length Akt2, 0.5 to 5 µM against Full length Akt3 and more than 5 µM on Full length PKA.
On to `Cn1nccc1-c1ccc2c(c1)CN([C@H](CN)CC1CC1)C2=O` [Example 136, 2-[(1S)-2-amino-1-(cyclopropylmethyl)ethyl]-5-(1-methyl-1H-pyrazol-5-yl)isoindolin-1-one], for which the IC50 was less than 0.5 µM against Full length Akt1, 0.5 to 5 µM at Full length Akt2, more than 5 µM against Full length Akt3 and more than 5 µM on Full length PKA.
Regarding `Cn1nccc1-c1ccc2c(c1)CN([C@H](CN)Cc1cccc(-c3ccsc3)c1)C2=O` [Example 84, 2-{(1S)-2-amino-1-[3-(3-thienyl)benzyl]ethyl}-5-(1-methyl-1H-pyrazol-5-yl)isoindolin-1-one], the IC50 against Full length Akt1 is less than 0.5 µM; against Full length Akt2 it was 0.5 to 5 µM; at Full length Akt3, 0.5 to 5 µM; against Full length PKA it was more than 5 µM.
With `CN(C)CC(c1ccccc1)N1Cc2cc(-c3c(Cl)cnn3C)ccc2C1=O` (centres unmarked) [Example 121, 5-(4-chloro-1-methyl-1H-pyrazol-5-yl)-2-[2-(dimethyl-amino)-1-phenylethyl]iso-indolin-1-one], the IC50 on Full length Akt1, against Full length Akt2, on Full length Akt3 and on Full length PKA was more than 5 µM each time.
With `Cn1ncc(Cl)c1-c1ccc2c(c1)CN([C@H](CN)Cc1cccc(-c3ccsc3)c1)C2=O` [Example 71, 2-{(1S)-2-amino-1-[3-(3-thienyl)benzyl]ethyl}-5-(4-chloro-1-methyl-1H-pyrazol-5-yl)isoindolin-1-one], the concentration for half-maximal inhibition (IC50) at Full length Akt1 is less than 0.5 µM; against Full length Akt2, 0.5 to 5 µM; on Full length Akt3, 0.5 to 5 µM; against Full length PKA it was more than 5 µM.
`Cn1ncc(-c2nccs2)c1-c1ccc2c(c1)CN([C@H](CN)Cc1cccc(F)c1)C2=O` [Example 20, 2-[(1S)-2-amino-1-(3-fluorobenzyl)ethyl]-5-[1-methyl-4-(1,3-thiazol-2-yl)-1H-pyrazol-5-yl]isoindolin-1-one]: the IC50 was less than 0.5 µM against Full length Akt1, 0.5 to 5 µM against Full length Akt2, 0.5 to 5 µM on Full length Akt3 and more than 5 µM against Full length PKA.
Turning to `Cn1ncc(Cl)c1-c1ccc2c(c1)CN([C@H](CNC1CCC1)Cc1cccc(F)c1)C2=O` [Example 34, 5-(4-chloro-1-methyl-1H-pyrazol-5-yl)-2-[(1S)-2-(cyclobutylamino)-1-(3-fluorobenzyl)ethyl]isoindolin-1-one], the IC50 was less than 0.5 µM against Full length Akt1, 0.5 to 5 µM on Full length Akt2, 0.5 to 5 µM against Full length Akt3 and more than 5 µM against Full length PKA.
Regarding `CCSCc1cnn(C)c1-c1cc2c(cn1)C(=O)N([C@H](CN)Cc1cccc(F)c1)C2` [Example 98, 2-[(1S)-2-amino-1-(3-fluorobenzyl)ethyl]-6-[4-(ethylthiomethyl)-1-methyl-1H-pyrazol-5-yl]-1,2-dihydro-3H-pyrrolo[3,4-c]pyridin-3-one], the IC50 at Full length Akt1 is 0.5 to 5 µM; at Full length Akt2, more than 5 µM; on Full length Akt3, 0.5 to 5 µM; against Full length PKA it was more than 5 µM.
For `Cn1ncc(-c2cncc(F)c2)c1-c1ccc2c(c1)CN([C@H](CN)Cc1cccc(F)c1)C2=O` [Example 26, 2-[(1S)-2-amino-1-(3-fluorobenzyl)ethyl]-5-[4-(5-fluoropyridin-3-yl)-1-methyl-1H-pyrazol-5-yl]isoindolin-1-one], the IC50 on Full length Akt1, on Full length Akt2, against Full length Akt3 and against Full length PKA was more than 5 µM in each case.
